Data on two molecules can be found in PMC2818873 (Bioorganic & medicinal chemistry, 2009).

Test [1] has as its system folyl poly-γ-glutamate synthetase (FPGS). The note with it: cited from earlier work.
Test [2] addresses T1, P. carinii DHFR (Pneumocystis carinii, UniProt P16184).
T1 sequence (P16184 1-206): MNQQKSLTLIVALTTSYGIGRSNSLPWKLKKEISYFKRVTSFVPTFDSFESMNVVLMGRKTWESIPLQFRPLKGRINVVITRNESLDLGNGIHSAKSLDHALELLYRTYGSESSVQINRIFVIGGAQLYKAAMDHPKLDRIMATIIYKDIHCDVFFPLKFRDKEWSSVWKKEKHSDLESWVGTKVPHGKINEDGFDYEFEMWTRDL
Type of test: biochemical. The note with it: IC50 rat liver DHFR / IC50 P. carinii DHFR.

As for `Cc1c(Sc2ccc(C(=O)N[C@@H](CCC(=O)O)C(=O)O)cc2)[nH]c2nc(N)nc(N)c12` [Compound 4], the FPGS substrate activity result in test [1] was “reasonable FPGS substrate activity”. As for `Cc1c(Sc2cccc3ccccc23)oc2nc(N)nc(N)c12` [Compound 6, 2,4-Diamino-5-methyl-6-(1-naphthylthio)furo[2,3-d]pyrimidine], in test [2], the Selectivity ratio rl/pc is reported as more than 10.
